Assay results published in the supplement of paper PMC8882468.
± gives the standard deviation of the averaged measurements.

Assays:
Experiment in all cases: CTG-3D luminescence at 96 h relative to day-0 seeding control (ratio to day 0); higher = more growth / less cytotoxicity; PDxO 3D drug screen, 96 h, CTG-3D normalised to day-0 seeding control.
HCI-001 = tested on: HCI-001 (organoid from a triple-negative breast cancer xenograft)
HCI-002 = tested on: HCI-002 (organoid from a triple-negative breast cancer xenograft)
HCI-003.E2 = tested on: HCI-003.E2 (organoid from an ER-positive breast cancer xenograft)
HCI-019 = tested on: HCI-019 (organoid from a triple-negative breast cancer xenograft)
HCI-024 = tested on: HCI-024 (organoid from a breast cancer xenograft)

CCc1c2c(nc3ccc(O)cc13)-c1cc3c(c(=O)n1C2)COC(=O)[C@]3(O)CC [SN-38]
CTG-3D luminescence at 96 h
Conditions | 12.5 pM | 0.00025 µM | 0.005 µM | 0.1 µM | 1 µM | 10 µM | 100 µM | 625 fM
HCI-001, days in culture: 240 | 1.51 | 0.771 | 0.767 | 0.396 | 0.155 | 0.0446 | 0.0627 | 1.46
HCI-001, days in culture: 260 | 2.58 | 1 | 1.24 | 0.603 | 0.195 | 0.0569 | 0.027 | 1.29
HCI-001, days in culture: 269 | 1.53 | 1.63 | 1.32 | 0.477 | 0.161 | 0.0511 | 0.0406 | 1.73
HCI-001, days in culture: 327 | 1.72 | 1.61 | 1.83 | 0.602 | 0.127 | 0.0312 | 0.0351 | 2.1
HCI-001, days in culture: 346 | 1.26 | 1.2 | 0.977 | 0.483 | 0.105 | 0.0311 | 0.0287 | 1.11
HCI-001, days in culture: 364 | 1.37 | 0.978 | 1.19 | 0.283 | 0.0835 | 0.0303 | 0.0177 | 1.76
HCI-002, days in culture: 62 | 3.11 | 2.44 | 1.01 | 0.53 | 0.117 | 0.0334 | 0.0217 | 3.05
HCI-002, days in culture: 82 | 3.04 | 3.05 | 1.13 | 0.606 | 0.265 | 0.0317 | 0.0208 | 3.43
HCI-002, days in culture: 91 | 3.6 | 2.86 | 0.92 | 0.659 | 0.289 | 0.0365 | 0.0217 | 3.54
HCI-002, days in culture: 191 | 2.67 | 2.76 | 1.31 | 0.721 | 0.356 | 0.0269 | 0.0208 | 2.87
HCI-002, days in culture: 209 | 2.21 | 2.28 | 0.962 | 0.556 | 0.155 | 0.0238 | 0.0205 | 2.49
HCI-002, days in culture: 227 | 5.46 | 4.33 | 1.89 | 1.13 | 0.464 | 0.0608 | 0.038 | 5.49
HCI-019, days in culture: 110 | 1.82 | 1.78 | 0.471 | 0.295 | 0.238 | 0.127 | 0.0625 | 2.53
HCI-019, days in culture: 131 | 3.04 | 2.79 | 0.948 | 0.312 | 0.308 | 0.107 | 0.169 | 3.56
HCI-019, days in culture: 152 | 3.21 | 3.38 | 1.51 | 0.48 | 0.521 | 0.106 | 0.0856 | 2.26
HCI-024, days in culture: 105 | 1.67 | 1.42 | 1.1 | 0.734 | 0.264 | 0.153 | 0.114 | 1.9
HCI-024, days in culture: 122 | 2.16 | 2.39 | 1.58 | 0.768 | 0.272 | 0.192 | 0.13 | 2.86
HCI-024, days in culture: 163 | 1.84 | 1.76 | 1.18 | 0.824 | 0.262 | 0.185 | 0.173 | 2.01

HCI-003.E2
Conditions | CTG-3D luminescence at 96 h
12.5 pM | 2.07 ± 0.86
0.00025 µM | 2.06 ± 0.55
0.005 µM | 1.68 ± 0.41
0.1 µM | 1.64 ± 0.19
1 µM | 1.24 ± 0.17
10 µM | 0.339 ± 0.13
100 µM | 0.213 ± 0.061
625 fM | 1.94 ± 0.31

CCN1CCN(Cc2ccc(Nc3ncc(F)c(-c4cc(F)c5nc(C)n(C(C)C)c5c4)n3)nc2)CC1 [abemaciclib]
CTG-3D luminescence at 96 h
Conditions | 12.5 pM | 0.00025 µM | 0.005 µM | 0.1 µM | 1 µM | 10 µM | 100 µM | 625 fM
HCI-001, days in culture: 240 | 1.34 | 0.584 | 0.704 | 0.897 | 1.37 | 0.799 | 0.012 | 1.47
HCI-001, days in culture: 260 | 2.51 | 1.22 | 1.6 | 1.75 | 1.37 | 1.23 | 0.00996 | 2.02
HCI-001, days in culture: 269 | 1.53 | 1.73 | 1.69 | 1.38 | 1.17 | 0.68 | 0.0115 | 1.67
HCI-001, days in culture: 327 | 1.46 | 1.41 | 1.87 | 1.58 | 1.36 | 1.12 | 0.0169 | 1.75
HCI-001, days in culture: 346 | 1.39 | 1.37 | 1.18 | 1.14 | 1.17 | 1.35 | 0.0179 | 1.19
HCI-001, days in culture: 364 | 1.39 | 1.1 | 1.38 | 0.914 | 0.909 | 1.22 | 0.0124 | 1.72
HCI-002, days in culture: 62 | 2.66 | 2.58 | 3.14 | 1.73 | 1.79 | 0.212 | 0.0177 | 2.98
HCI-002, days in culture: 82 | 3.15 | 2.81 | 2.24 | 1.98 | 1.8 | 0.0326 | 0.0147 | 2.83
HCI-002, days in culture: 91 | 3.78 | 3.22 | 2.89 | 1.68 | 2.17 | 1.95 | 0.0268 | 3.9
HCI-002, days in culture: 191 | 2.72 | 2.89 | 3.01 | 1.89 | 2.34 | 0.748 | 0.018 | 2.57
HCI-002, days in culture: 209 | 2.24 | 2.35 | 2.4 | 1.36 | 1.49 | 0.0253 | 0.014 | 2.36
HCI-002, days in culture: 227 | 5.48 | 5.17 | 4.76 | 2.91 | 3.24 | 0.0659 | 0.0285 | 5.64
HCI-019, days in culture: 110 | 2.26 | 1.44 | 1.96 | 2.43 | 1.42 | 0.433 | 0.016 | 2.64
HCI-019, days in culture: 131 | 2.45 | 3.28 | 2.99 | 4.2 | 2.75 | 1.9 | 0.0216 | 2.87
HCI-019, days in culture: 152 | 3.44 | 2.78 | 2.45 | 2.58 | 2.13 | 0.0403 | 0.012 | 2.48
HCI-024, days in culture: 105 | 1.51 | 1.33 | 1.28 | 1.48 | 1.25 | 0.994 | 0.0179 | 1.87
HCI-024, days in culture: 122 | 2.26 | 2.43 | 1.7 | 1.89 | 1.62 | 2.1 | 0.0233 | 3.21
HCI-024, days in culture: 163 | 1.45 | 2.01 | 1.71 | 2.45 | 1.94 | 1.38 | 0.0196 | 1.89

HCI-003.E2
Conditions | CTG-3D luminescence at 96 h
12.5 pM | 2.17 ± 0.76
0.00025 µM | 2.14 ± 0.51
0.005 µM | 2.02 ± 0.48
0.1 µM | 2.27 ± 0.32
1 µM | 1.98 ± 0.34
10 µM | 0.491 ± 0.5
100 µM | 0.00596 ± 0.0057
625 fM | 1.87 ± 0.25
